This is an account of results in US8569302B2, “Inhibitors of flaviviridae viruses” (Gilead Sciences, Inc., priority 2009, dated 2013).

The structures appear in SMILES notation.

The experiment concerns human hepatoma Huh-7 cell line harboring a HCV replicon. In words: HCV replicon assay (inhibition of viral replication, luciferase readout). It is filed as cell-based. To be noted: Hepatitis C virus, 72 h, Huh-7 HCV replicon cells, 3 days incubation. As to the method:
The anti-HCV activity of the compounds of this invention was tested in a human hepatoma Huh-7 cell line harboring a HCV replicon. The assay comprised the following steps:
Step 1: Compound Preparation and Serial Dilution.
Serial dilution was performed in 100% DMSO in a 384-well plate. A solution containing a compound at 225-fold concentration of the starting final serial dilution concentration was prepared in 100% DMSO and 15 μL added to the pre-specified wells in column 3 or 13 of a polypropylene 384-well plate. The rest of the 384-well plate was filled with 10 μL 100% DMSO except for columns 23 and 24, where 10 μL of 500 μM a HCV protease inhibitor (ITMN-191) in 100% DMSO was added. The HCV protease inhibitor was used a control of 100% inhibition of HCV replication. The plate was then placed on a Biomek FX Workstation to start the serial dilution. The serial dilution was performed for ten cycles of 3-fold dilution from column 3 to 12 or from column 13 to 22.
Step 2: Cell Culture Plate Preparation and Compound Addition
To each well of a black polypropylene 384-well plate, 90 μL of cell media containing 1600 suspended Huh-7 HCV replicon cells was added with a Biotek uFlow Workstation. A volume of 0.4 μL of the compound solution was transferred from the serial dilution plate to the cell culture plate on a Biomek FX Workstation. The DMSO concentration in the final assay condition was 0.44%. The plates were incubated for 3 days at 37° C. with 5% CO2 and 85% humidity.
Step 3: Detection of Cytotoxicity and Inhibition of Viral Replication
a) Assessment of cytotoxicity: The media in the 384-well cell culture plate was aspirated with a Biotek EL405 plate-washer. A volume of 50 μL of a solution containing 400 nM Calcein AM in 100% PBS was added to each well of the plate with a Biotek uFlow Workstation. The plate was incubated for 30 minutes at room temperature before the fluorescence signal ([…]) was measured with a Perkin Elmer Envision Plate Reader.
b) Assessment of inhibition of viral replication: The calcein-PBS solution in the 384-well cell culture plate was aspirated with a Biotek EL405 plate-washer. A volume of 20 μL of Dual-Glo luciferase buffer (Promega, Dual-Glo Luciferase Assay Reagent, cat. #E298B) was added to each well of the plate with a Biotek uFlow Workstation. The plate was incubated for 10 minutes at room temperature. A volume of 20 μL of a solution containing 1:100 mixture of Dual-Glo Stop & Glo substrate (Promega, Dual-Glo Luciferase Assay Reagent, cat. #E313B) and Dual-Glo Stop & Glo buffer (Promega, Dual-Glo Luciferase Assay Reagent, cat. #E314B) was then added to each well of the plate with a Biotek uFlow Workstation. The plate was incubated at room temperature for 10 minutes before the luminescence signal was measured with a Perkin Elmer Envision Plate Reader.
The percent cytotoxicity was determined by calcein AM conversion to fluorescent product. The average fluorescent signal from the DMSO control wells was defined as 100% nontoxic. The individual fluorescent signal from testing compound treated well was divided by the average signal from DMSO control wells and then multiplied by 100% to get the percent viability. The percent anti-HCV replication activity was determined by the luminescence signal from the testing well compared to DMSO control wells. The background signal was determined by the average luminescence signal from the HCV protease inhibitor treated wells and was subtracted from the signal from the testing wells as well as the DMSO control wells. Following 3-fold serial dilutions, the EC50 and CC50 values were calculated by fitting % inhibition at each concentration to the following equation: % inhibition=100%/[EC50/[I])^b+1]
Where b is Hill's coefficient. See, for reference, Hill, A. V., The Possible Effects of the Aggregation of the Molecules of Hæmoglobin on its Dissociation Curves, J. Physiol. 40: iv-vii. (1910). […]
(A replicon is a self-replicating genome or part of one, used to study replication in cells.)
Molecule `Cn1nnnc1[S+]([O-])[C@H]1CC[C@H](N(c2cc(C#CC(C)(C)C)sc2C(=O)O)C(=O)[C@H]2CC[C@H](C)CC2)CC1` (stereo partly drawn) [Compound 111, 5-(3,3-Dimethylbut-1-ynyl)-3-((1r,4S)-4-methyl-N-(4-((R)-1-methyl-1H-tetrazol-5-ylsulfinyl)cyclohexyl)cyclohexanecarboxamido)thiophene-2-carboxylic acid] registered an inhibition at 2 µM of 99.8%.
Molecule `CC(C)(C)C#Cc1cc(N(C(=O)[C@H]2CC[C@H](C)CC2)[C@H]2CC[C@@H](Sc3ncccn3)CC2)c(C(=O)O)s1` [Compound 108, 5-(3,3-Dimethylbut-1-ynyl)-3-(4-methyl-N-(4-(pyrimidin-2-ylthio)cyclohexyl)cyclohexanecarboxamido)thiophene-2-carboxylic acid] gave an inhibition at 2 µM of 99.3%.
For `CCOc1cc(OCC[C@H](C)N(c2cc(C#CC(C)(C)C)sc2C(=O)O)C(=O)[C@H]2CC[C@H](C)CC2)c2ccc(OC)c(C)c2n1` [Compound 144, 5-(3,3-dimethyl-but-1-ynyl)-3-[[3-(2-ethoxy-7-methoxy-8-methyl-quinolin-4-yloxy)-1-(S)-methyl-propyl]-(4-methyl-cyclohexanecarbonyl)-amino]-thiophene-2-carboxylic acid], the inhibition at 2 µM is 95.4%.
Regarding `CC1=CC[C@@H](C(=O)N(c2cc(C#CC(C)(C)C)sc2C(=O)O)[C@H]2CC[C@H](OC3CCOC3)CC2)CC1` (stereo partly shown) [Compound 334], the inhibition at 2 µM turned out to be 99.9%.
For `CC1CCC(C(=O)N(c2cc(C#CC(C)(C)C)sc2C(=O)O)[C@H]2CC[C@H](Oc3cc(CN4CCC(O)C4)ccn3)CC2)CC1` (stereo partly shown) [Compound 190, 3-[[-4-[4-(3-hydroxy-pyrrolidin-1-ylmethyl)-pyridin-2-yloxy]-cyclohexyl]-(4-methyl-cyclohexanecarbonyl)-amino]-5-(3,3-Dimethyl-but-1-ynyl)-thiophene-2-carboxylic acid] the value was 100%.
For `CC(C)(C)C#Cc1cc(N(C(=O)[C@H]2CC[C@H](C)CC2)[C@H]2CC[C@H](Sc3ncccn3)CC2)c(C(=O)O)s1` [Compound 100, 5-(3,3-Dimethylbut-1-ynyl)-3-(4-methyl-N-(4-(pyrimidin-2-ylthio)cyclohexyl)cyclohexanecarboxamido)thiophene-2-carboxylic acid] the value was 99.9%; for `CC(C)(C)C#Cc1cc(N(C(=O)[C@H]2CC[C@H](C)CC2)[C@H]2C[C@H](Oc3cccnc3)C2)c(C(=O)O)s1` [Compound 21, 5-(3,3-Dimethyl-but-1-ynyl)-3-[(trans-4-methyl-cyclohexanecarbonyl)-{trans-3-(pyridin-3-yloxy)-cyclobutyl]-amino}-thiophene-2-carboxylic acid], 98.8%.
For `CC(C)(C)C#Cc1cc(N(C(=O)[C@H]2CC[C@H](C)CC2)[C@H]2CC[C@H](Sc3nccs3)CC2)c(C(=O)O)s1` [Compound 106, 5-(3,3-Dimethylbut-1-ynyl)-3-(4-methyl-N-(4-(thiazol-2-ylthio)cyclohexyl)cyclohexanecarboxamido)thiophene-2-carboxylic acid] the value was 99.9%; for `C[C@H]1CC[C@H](C(=O)N(c2cc(C#CC3(C(F)(F)F)CCC3)sc2C(=O)O)[C@H]2CC[C@H](Oc3ccc(O)nn3)CC2)CC1` [Compound 339, 3-((1r,4R)—N-((1r,4R)-4-(6-hydroxypyridazin-3-yloxy)cyclohexyl)-4-methylcyclohexanecarboxamido)-5-((1-(trifluoromethyl)cyclobutyl)ethynyl)thiophene-2-carboxylic acid], 99.9%; for `CC1CCC(C(=O)N(c2cc(C#CC(C)(C)C)sc2C(=O)O)[C@H]2CC[C@H](Oc3ccnc(CN4CCCC4)c3)CC2)CC1` (stereo partly shown) [Compound 199, 3-[[-4-(2-pyrrolidin-1-ylmethyl-pyridin-4-yloxy)-cyclohexyl]-(4-methyl-cyclohexanecarbonyl)-amino]-5-(3,3-dimethyl-but-1-ynyl)-thiophene-2-carboxylic acid], 99.9%.
In turn, `CC1CCC(C(=O)N(c2cc(C#CC(C)(C)C)sc2C(=O)O)[C@H]2CC[C@H](Oc3cncc(CN(C)C)c3)CC2)CC1` (stereo partly shown) [Compound 192, 3-[[-4-(5-dimethylaminomethyl-pyridin-3-yloxy)-cyclohexyl]-(4-methyl-cyclohexanecarbonyl)-amino]-5-(3,3-dimethyl-but-1-ynyl)-thiophene-2-carboxylic acid] gave an inhibition at 2 µM of 100%.
The same measure for `CC1CCC(C(=O)N(c2cc(C#CC(C)(C)C)sc2C(=O)O)[C@H]2CC[C@H](Oc3cc(CN(C)C)ccn3)CC2)CC1` (stereo partly shown) [Compound 29, 3-[[-4-(4-dimethylaminomethyl-pyridin-2-yloxy)-cyclohexyl]-(4-methyl-cyclohexanecarbonyl)-amino]-5-(3,3-Dimethyl-but-1-ynyl)-thiophene-2-carboxylic acid]: 100%; for `CC(C)(C)C#Cc1cc(N(C(=O)[C@H]2CC[C@H](C)CC2)C2CCC(O[C@@H]3CO[C@H]4OCC[C@H]43)CC2)c(C(=O)O)s1` (stereo partly drawn) [Compound 221, 5-(3,3-dimethylbut-1-ynyl)-3-((1r,4R)-4-methyl-N-(4-((3S,3aS,6aR)-tetrahydro-2H-furo[2,3-b]furan-3-yloxy)cyclohexyl)cyclohexanecarboxamido)thiophene-2-carboxylic acid]: 100%; for `CC(C)(C)C#Cc1cc(N(C(=O)[C@H]2CC[C@H](C)CC2)[C@H]2CC[C@H](Oc3cccc(N4CCCC4)n3)CC2)c(C(=O)O)s1` [Compound 152, 5-(3,3-Dimethylbut-1-ynyl)-3-(4-methyl-N-(4-(6-(pyrrolidin-1-yl)pyridin-2-yloxy)cyclohexyl)cyclohexanecarboxamido)thiophene-2-carboxylic acid]: 73.7%.
For the molecule `CC(C)(C)C#Cc1cc(N(C(=O)[C@H]2CC[C@H](C)CC2)[C@H]2CC[C@H](O[C@H]3CCN(C(=O)OC(C)(C)C)C3)CC2)c(C(=O)O)s1` [Compound 225], the inhibition at 2 µM was found to be 98.4%.
`C[C@@H]1CC[C@@H](C(=O)N(c2cc(C#CC(C)(C)C)sc2C(=O)O)[C@H]2CC[C@H](O[C@@H]3CCOC3)CC2)[C@@H](O)C1` [Compound 310, 5-(3,3-dimethylbut-1-ynyl)-3-((1R,2S,4R)-2-hydroxy-4-methyl-N-(4-(tetrahydrofuran-3R-yloxy)cyclohexyl)cyclohexanecarboxamido)thiophene-2-carboxylic acid]: the inhibition at 2 µM was determined as 100%.
Molecule `CC(C)(C)C#Cc1cc(N(C(=O)[C@H]2CC[C@H](C)CC2)[C@H]2CC[C@H](Oc3cc(N4CCCC4)ncn3)CC2)c(C(=O)O)s1` [Compound 150, 5-(3,3-Dimethylbut-1-ynyl)-3-(4-methyl-N-(4-(6-(pyrrolidin-1-yl)pyrimidin-4-yloxy)cyclohexyl)cyclohexanecarboxamido)thiophene-2-carboxylic acid] showed an inhibition at 2 µM of 99.6%.
The same measure for `CC(C)(C)C#Cc1cc(N(C(=O)[C@H]2CC[C@H](C)CC2)[C@H]2CC[C@H](Oc3cc[nH]c(=O)n3)CC2)c(C(=O)O)s1` [Compound 147, 5-(3,3-Dimethyl-but-1-ynyl)-3-{(trans-4-methyl-cyclohexanecarbonyl)-[trans-4-(2-oxo-1,2-dihydro-pyrimidin-4-yloxy)-cyclohexyl]-amino}-thiophene-2-carboxylic acid]: 99.9%; for `CC(C)(C)C#Cc1cc(N(C(=O)[C@H]2CC[C@H](C)CC2)[C@H]2CC[C@@H](Oc3ccc(Cl)nn3)CC2)c(C(=O)O)s1` [Compound 177, 3-(N-(4-(6-Chloropyridazin-3-yloxy)cyclohexyl)-4-methylcyclohexanecarboxamido)-5-(3,3-dimethylbut-1-ynyl)thiophene-2-carboxylic acid]: 99.6%.

Broadly, the inhibition is the change of the read-out against control, counted positive when it falls. A low value points to a response near the control.
